Laboratory results reported in ChEMBL document CHEMBL3885861, “Open TG-GATES”.

Species on record: Rattus norvegicus
Assay: Open TG-GATES - Regimen: Single
Assay type: toxicity, organism-based, Sprague-Dawley
Set-up: regimen Single, gender Male, age 6 weeks
Details: in vivo, po, 300 mg/kg, route gavage, dose level Low; for RALB / TC / TG / TP / gamma-GTP / A/G / ALP / ALT / AST / BUN / CRE / Ca / Cl / GLC / IP / K / LDH / Na / PL: tissue Plasma; for APTT / Bas / Eos / Fbg / Hb / Ht / Lym / MCH / MCHC / MCV / Mono / Neu / PT / Plat / RBC / Ret / WBC: tissue Blood; for KIDNEY_L / KIDNEY_R / KIDNEY_TOTAL: tissue Kidney; for LIVER: tissue Liver

Which results are given for O=C(O)c1ccccc1Nc1ccccc1 [FENAMIC ACID]?
RALB (6 h): 2.5 g/dL; TC (6 h): 58.6 mg/dL; TG (6 h): 38.8 mg/dL; TP (6 h): 5.3 g/dL; gamma-GTP (6 h): 1.2 IU/L; TERMINAL_BW (9 h): 205.1 g; APTT (9 h): 17.9 s; Bas (9 h): 0.6%; Eos (9 h): 1%; Fbg (9 h): 262.6 mg/dL; Hb (9 h): 13.5 g/dL; Ht (9 h): 40.6%; Lym (9 h): 71.8%; MCH (9 h): 20.9 pg; MCHC (9 h): 33.1%; MCV (9 h): 63.2 fL; Mono (9 h): 2%; Neu (9 h): 24.4%; PT (9 h): 14.9 s; Plat (9 h): 116.7 x10_4/uL; RBC (9 h): 642.8 x10_4/ul; Ret (9 h): 7.8%; WBC (9 h): 78.3 x10_2/uL; KIDNEY_L (9 h): 0.9 g; KIDNEY_R (9 h): 0.9 g; KIDNEY_TOTAL (9 h): 1.8 g; LIVER (9 h): 7.2 g; A/G (9 h): 0.9; ALP (9 h): 1734.8 IU/L; ALT (9 h): 35 IU/L; AST (9 h): 69.6 IU/L; BUN (9 h): 13.4 mg/dL; CRE (9 h): 0.2 mg/dL; Ca (9 h): 10.9 mg/dL; Cl (9 h): 108 meq/L; GLC (9 h): 149 mg/dL; IP (9 h): 11 mg/dL; K (9 h): 3.8 meq/L; LDH (9 h): 60.6 IU/L; Na (9 h): 146 meq/L; PL (9 h): 121.6 mg/dL; RALB (9 h): 2.6 g/dL; TC (9 h): 59.4 mg/dL; TG (9 h): 39.8 mg/dL; TP (9 h): 5.5 g/dL; gamma-GTP (9 h): 1.2 IU/L; TERMINAL_BW (24 h): 218.8 g; APTT (24 h): 17.6 s; Bas (24 h): 0.6%; Eos (24 h): 0.6%; Fbg (24 h): 269.2 mg/dL; Hb (24 h): 13.3 g/dL; Ht (24 h): 40.1%; Lym (24 h): 80.6%; MCH (24 h): 20.9 pg; MCHC (24 h): 33.1%; MCV (24 h): 63.2 fL; Mono (24 h): 2.6%; Neu (24 h): 15%; PT (24 h): 14.4 s; Plat (24 h): 121.2 x10_4/uL; RBC (24 h): 634.4 x10_4/ul; Ret (24 h): 7.4%; WBC (24 h): 115.6 x10_2/uL; KIDNEY_L (24 h): 1 g; KIDNEY_R (24 h): 1 g; KIDNEY_TOTAL (24 h): 2 g; LIVER (24 h): 10.2 g; A/G (24 h): 0.9; ALP (24 h): 1785.8 IU/L; ALT (24 h): 38.6 IU/L; AST (24 h): 71.2 IU/L; BUN (24 h): 14 mg/dL; CRE (24 h): 0.2 mg/dL; Ca (24 h): 11.2 mg/dL; Cl (24 h): 105.6 meq/L; GLC (24 h): 173.4 mg/dL; IP (24 h): 6.9 mg/dL; K (24 h): 4 meq/L; LDH (24 h): 130.6 IU/L; Na (24 h): 144.2 meq/L; PL (24 h): 143.2 mg/dL; RALB (24 h): 2.6 g/dL
